From ChEMBL document CHEMBL1799910, “Optimization of 1,2,3,4-tetrahydroacridin-9(10H)-ones as antimalarials utilizing structure-activity and structure-property relationships” (J Med Chem, 2011)
≈ marks a conversion by molar mass, not a printed value.

Assays:
Plasmodium falciparum [1] = assay: Antimalarial activity against chloroquine, mefloquine, pyrimethamine and atovaquone-resistant Plasmodium falciparum TM90-C2B infected in human A positive erythrocytes after 72 hrs by SYBR Green I assay; assay type: functional, organism-based
Plasmodium falciparum [2] = assay: Resistance index, ratio of EC50 for chloroquine, mefloquine, pyrimethamine and atovaquone-resistant Plasmodium falciparum TM90-C2B to EC50 for chloroquine and pyrimethamine-resistant Plasmodium falciparum W2; assay type: functional
[3] = Aqueous solubility of compound at pH 7.4 by HPLC analysis; conditions: buffer
J774 = assay: Cytotoxicity against mouse J774 cells after 72 hrs by Cell titer 96 aqueous one solution cell proliferation assay; assay type: cell-based; conditions: J774, 72 h
[4] = Permeability of the compound by PAMPA method at pH 7.4; assay type: ADME; conditions: read-out: permeability
Plasmodium falciparum [5] = assay: Antimalarial activity against chloroquine and pyrimethamine-resistant Plasmodium falciparum W2 infected in human A positive erythrocytes after 72 hrs by SYBR Green I assay; assay type: functional, organism-based; conditions: W2, 72 h
[6] = Partition coefficient, log D of the compound at pH 7.4 by HPLC analysis; conditions: octanol/water
[7] = Cytotoxicity index, ratio of EC50 for mouse J774 cells to EC50 for chloroquine, mefloquine, pyrimethamine and atovaquone-resistant Plasmodium falciparum TM90-C2B; assay type: cell-based; conditions: read-out: Ratio EC50

| SMILES | EC50 (Plasmodium falciparum [1]) [nM] | Ratio EC50 (Plasmodium falciparum [2]) | solubility [3] [µM] | EC50 (J774) [nM] | Papp [4] [×10⁻⁶ cm/s] | EC50 (Plasmodium falciparum [5]) [nM] | logD [6] | selectivity ratio [7] |
| --- | --- | --- | --- | --- | --- | --- | --- | --- |
| Oc1c2c(nc3ccc(Br)cc13)CCCC2 | 64.7 | 0.32 | 2 (≈ 0.556 µg/mL) | > 2000 | 63 | 197 | 2.1 | ≥ 100 |
| CC1(C)CCc2c([nH]c3cccc(Cl)c3c2=O)C1 | 5330 | 1.78 | 6 (≈ 1.57 µg/mL) | > 5000 | 103 | 2990 | 2.5 | ≥ 100 |
| O=c1c2c([nH]c3cc([N+](=O)[O-])ccc13)CCCC2 | 959 | 0.91 | 3 (≈ 0.733 µg/mL) | > 2000 | 63 | 1050 | 1.5 | ≥ 100 |
| O=c1c2c([nH]c3ccc([N+](=O)[O-])cc13)CCCC2 | 379 | 0.12 | 8 (≈ 1.95 µg/mL) | > 5000 | 6.9 | 3160 | 1.5 | ≥ 100 |
| O=c1c2c([nH]c3c(F)cccc13)CCCC2 | 2910 | 5.43 | 109 (≈ 23.7 µg/mL) | > 40000 | 17 | 536 | 1.5 | ≥ 100 |
| O=c1c2c([nH]c3cc(F)ccc13)CCCC2 | 119 | 1.76 | 46 (≈ 9.99 µg/mL) | > 20000 | 21 | 67.7 | 1.7 | ≥ 100 |
| O=c1c2c([nH]c3ccc(I)cc13)CCCC2 | 167 | 0.44 | 4 (≈ 1.3 µg/mL) | > 20000 | 96 | 378 | 2.3 | ≥ 100 |
| O=c1c2c([nH]c3cc(Br)ccc13)CCCC2 | 115 | 1.48 | 14 (≈ 3.89 µg/mL) | > 10000 | 70 | 77.7 | 2.8 | ≥ 100 |
| CC(C)(C)c1ccc2[nH]c3c(c(=O)c2c1)CCCC3 | 325 | 4.13 | 5 (≈ 1.28 µg/mL) | > 5000 | 165 | 78.7 | 2.8 | ≥ 100 |
| CC(C)c1ccc2[nH]c3c(c(=O)c2c1)CCCC3 | 732 | 0.83 | 30 (≈ 7.24 µg/mL) | > 40000 | 100 | 879 | 2.2 | ≥ 100 |
| CCOc1ccc2[nH]c3c(c(=O)c2c1)CCCC3 | 226 | 0.85 | 5 (≈ 1.22 µg/mL) | > 5000 | 52 | 265 | 1.9 | ≥ 100 |
| CCOC(=O)c1ccc2[nH]c3c(c(=O)c2c1)CCCC3 | 58.3 | 0.38 | 8 (≈ 2.17 µg/mL) | > 5000 | 63 | 153 | 2.1 | ≥ 100 |
| Cc1ccc(C)c2c(=O)c3c([nH]c12)CCCC3 | 2390 | 0.78 | 122 (≈ 27.7 µg/mL) | > 20000 | 263 | 3070 | 2.6 | ≥ 100 |
| Cc1cc(C)c2[nH]c3c(c(=O)c2c1)CCCC3 | 768 | 0.72 | 108 (≈ 24.5 µg/mL) | > 40000 | 58 | 1070 | 2.2 | ≥ 100 |
| Cc1ccc2c(=O)c3c([nH]c2c1C)CCCC3 | 2280 | 0.58 | 8 (≈ 1.82 µg/mL) | > 5000 | 42 | 3920 | 2.2 | ≥ 100 |
| COc1cc(OC)c2[nH]c3c(c(=O)c2c1)CCCC3 | 7980 | <0.83 | 152 (≈ 39.4 µg/mL) | > 20000 | 51 | > 9640 | 1.9 | ≥ 100 |
| COc1cc(OC)c2c(=O)c3c([nH]c2c1)CCCC3 | 2590 | <0.36 | 188 (≈ 48.7 µg/mL) | > 40000 | 13 | > 7290 | 1.4 | ≥ 100 |
| COc1ccc2c(=O)c3c([nH]c2c1OC)CCCC3 | 3460 | 0.55 | 175 (≈ 45.4 µg/mL) | > 20000 | 19 | 6340 | 1.8 | ≥ 100 |

| SMILES | EC50 (Plasmodium falciparum [1]) [nM] | Ratio EC50 (Plasmodium falciparum [2]) | solubility [3] [µM] | EC50 (J774) [nM] | Papp [4] [×10⁻⁶ cm/s] | EC50 (Plasmodium falciparum [5]) [nM] | logD [6] | selectivity ratio [7] |
| --- | --- | --- | --- | --- | --- | --- | --- | --- |
| COc1cc2[nH]c3c(c(=O)c2cc1OC)CCCC3 | 3390 | 0.38 | 88 (≈ 22.8 µg/mL) | > 20000 | 1 | 8970 | 1.3 | ≥ 100 |
| O=c1c2c([nH]c3cc(Cl)cc(Cl)c13)CCCC2 | 96.2 | 1.1 | 8 (≈ 2.15 µg/mL) | > 5000 | 134 | 87.8 | 2.5 | ≥ 100 |
| O=c1c2c([nH]c3c(Cl)c(Cl)ccc13)CCCC2 | > 9330 | >1.47 | 41 (≈ 11 µg/mL) | > 20000 | 348 | 6330 | 2.9 | ≥ 100 |
| O=c1c2c([nH]c3cc(Cl)c(Cl)cc13)CCCC2 | 341 | 1.06 | 1 (≈ 0.268 µg/mL) | > 1000 | 180 | 321 | 2.6 | ≥ 100 |
| O=c1c2c([nH]c3c(F)ccc(F)c13)CCCC2 | 1320 | 1.64 | 159 (≈ 37.4 µg/mL) | > 40000 | 12 | 804 | 1.3 | ≥ 100 |
| O=c1c2c([nH]c3c(F)cc(F)cc13)CCCC2 | 405 | 0.15 | 66 (≈ 15.5 µg/mL) | > 40000 | 29 | 2690 | 1.7 | ≥ 100 |
| O=c1c2c([nH]c3c(F)c(F)ccc13)CCCC2 | 378 | 0.36 | 93 (≈ 21.9 µg/mL) | > 40000 | 38 | 1050 | 1.9 | ≥ 100 |
| O=c1c2c([nH]c3cc(F)c(F)cc13)CCCC2 | 118 | 0.91 | 18 (≈ 4.23 µg/mL) | > 10000 | 28 | 129 | 1.9 | ≥ 100 |
| COc1cc2c(=O)c3c([nH]c2cc1Cl)CCCC3 | 11.5 | 0.33 | 33 (≈ 8.7 µg/mL) | > 20000 | 24 | 35.2 | 1.3 | ≥ 100 |
| COc1cc2[nH]c3c(c(=O)c2cc1Cl)CCCC3 | 24.1 | 0.79 | 17 (≈ 4.48 µg/mL) | > 10000 | 85 | 30.6 | 2.2 | ≥ 100 |
| COc1cc2[nH]c3c(c(=O)c2cc1Cl)CSCC3 | 130 | 4.94 | 13 (≈ 3.66 µg/mL) | > 10000 | 101 | 26.3 | 1 | ≥ 100 |
| COc1cc2[nH]c3c(c(=O)c2cc1C)CCCC3 | 16.2 | 0.46 | 23 (≈ 5.6 µg/mL) | > 20000 | 50 | 34.8 | 2 | ≥ 100 |
| COc1cc2[nH]c3c(c(=O)c2cc1C)CSCC3 | 96.9 | 0.86 | 14 (≈ 3.66 µg/mL) | > 10000 | 68 | 113 | 0.9 | ≥ 100 |
| O=c1c2c([nH]c3ccc(-c4ccncc4)cc13)CCSC2 | 4990 | 0.8 | 45 (≈ 13.2 µg/mL) | > 20000 | 15 | 6210 | 0.8 | ≥ 100 |
| O=c1c2c([nH]c3ccc(-c4cccnc4)cc13)CCSC2 | 8490 | 1.11 | 37 (≈ 10.9 µg/mL) | > 20000 | 3 | 7620 | 0.8 | ≥ 100 |
| O=c1c2c([nH]c3ccc(-c4ccc(F)cc4F)cc13)CCSC2 | 78.4 | 0.41 | 7 (≈ 2.31 µg/mL) | > 5000 | 10 | 193 | 3.6 | ≥ 100 |
| O=c1c2c([nH]c3ccc(-c4ccc(OC(F)(F)F)cc4)cc13)CCSC2 | 58 | 0.61 | 1 (≈ 0.377 µg/mL) | > 1000 | < 1 | 95.1 | 2.5 | ≥ 100 |
| O=c1c2c([nH]c3ccc(-c4cccc(Oc5ccc(F)cc5)c4)cc13)CCSC2 | 143 | 3.5 | 0.3 (≈ 0.121 µg/mL) | > 100 | 2 | 40.9 | 2.8 | ≥ 100 |
